Source: patent US10709692B2, “Isoxazolidine derived inhibitors of receptor interacting protein kinase 1 (RIPK1)” (Denali Therapeutics Inc., priority 2015, dated 2020)
Where “and” joins values, the source holds several entries; their conditions need not be identical. Equal values may be shown once.

Biological target: T1, receptor interacting protein kinase 1 (GST-hRIPK1 (8-327)) (Homo sapiens, UniProt Q13546)
T1 construct: GST-hRIPK1 (8-327) enzyme was generated by Proteros GmbH by Baculovirus expression system
T1 sequence (Q13546 8-327): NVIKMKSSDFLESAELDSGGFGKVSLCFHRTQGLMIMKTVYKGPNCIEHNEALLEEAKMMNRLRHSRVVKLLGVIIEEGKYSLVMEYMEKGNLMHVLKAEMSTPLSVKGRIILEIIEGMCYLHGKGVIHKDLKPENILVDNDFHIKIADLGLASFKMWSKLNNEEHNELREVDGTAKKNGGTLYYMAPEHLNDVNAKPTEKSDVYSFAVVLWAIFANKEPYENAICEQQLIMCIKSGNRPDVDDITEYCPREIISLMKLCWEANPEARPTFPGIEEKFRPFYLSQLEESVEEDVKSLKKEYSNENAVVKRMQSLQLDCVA
Assay: ADP-Glo luminescence assay, RIPK1 autophosphorylation
Type: biochemical
Conditions: 1.5 μg/mL GST-hRIPK1 (8-327), 50 μM ATP, 3 hours at room temperature
Protocol: (§1) Compound potency at receptor interacting protein kinase 1 and selectivity at receptor interacting protein kinase 2 and receptor interacting protein kinase 3 was determined in autophosphorylation mode, using an ADP-Glo luminescence assay, which measures the conversion of ATP to ADP.
(§2) GST-hRIPK1 (8-327) enzyme was generated by Proteros GmbH by Baculovirus expression system. GST-hRIPK2 (1-299) and GST-hRIPK3 (1-518) enzymes were purchased from SignalChem. Test compounds were diluted in DMSO and 0.1 μL of solution was dispensed to each well of a 384-well white solid microplates. The assay buffer was 50 mM HEPES pH 7.5, 50 mM NaCl, 30 mM MgCl2. The buffer was supplemented with 0.02% CHAPS, 0.01% of Pluronic F127, 0.1 mg/mL BSA and 1 mM DTT. Only for receptor interacting protein kinase 1 5 mM MnCl2, was included in the assay buffer on the day of the experiment. The enzymatic reaction consisted of 1.5 μg/mL GST-hRIPK1 (8-327) and 50 μM ATP for receptor interacting protein kinase 1, 0.4 μg/mL GST-hRIPK2 (1-299) and 150 μM ATP, 0.4 μg/mL GST-hRIPK3 (1-518) and 15 μM ATP. 5 μL of enzyme and 5 μL of ATP were added to the plate at twice the final assay concentration and incubated at room temperature for 3 hours. Following this reaction, 10 μL of ADP-Glo reagent (Promega) was added to each well and incubated for 40 minutes at room temperature. This stops the kinase reaction and depletes any remaining ATP. 20 μL of ADP-Glo detection reagent was then added to each well and incubated at room temperature for at least 15 minutes. The detection reagent converts ADP to ATP and introduces luciferase and luciferin to detect ATP. The luminescence is then measured with the Envision (PerkinElmer) plate reader. Test compound inhibition was expressed as percent inhibition of internal assay controls. For concentration response curves, normalized data is fit and pIC50 determined using XL-fit (IDBS) for Excel. The pIC50 were averaged to determine a mean value, for a minimum of two independent experiments.
as §1, with “Certain compounds were tested in the following. Compound” for “Compound”, “assay (Berger S. B. et al. (2015) Cell Death Discovery, 1: 15009),” for “assay,”
GST-hRIPK1 (8-327) enzyme was generated by Proteros GmbH by Baculovirus expression system.
as §2, with “Test” for “GST-hRIPK1 (8-327) enzyme was generated by Proteros GmbH by Baculovirus expression system. GST-hRIPK2 (1-299) and GST-hRIPK3 (1-518) enzymes were purchased from SignalChem. Test”, “microplate.” for “microplates.”, “comprised” for “consisted of”, “1” for “1, 0.4 μg/mL GST-hRIPK2 (1-299) and 150 μM ATP, 0.4 μg/mL GST-hRIPK3 (1-518)”, “IC50” for “pIC50”, “experiments. […]” for “experiments.”

IC50 [nM]	SMILES
< 1000	Cn1c(C#N)ccc1C(=O)N1OCCC1c1c(F)cccc1Cl (racemic) [Compound 3, 5-[3-(2-chloro-6-fluorophenyl)-1,2-oxazolidine-2-carbonyl]-1-methyl-1H-pyrrole-2-carbonitrile]
< 1000	CC(C)(C)C(=O)N1OCCC1c1ccc(F)cc1 (single isomer, unassigned) [Compound 73, 1-[3-(4-Fluorophenyl)-1,2-oxazolidin-2-yl]-2,2-dimethylpropan-1-one]
< 1000	Cc1ncc([C@@H]2CCON2C(=O)C(C)(C)C)cc1F (single isomer, unassigned) [Compound 97]
1000 to 10000	CC(C)(C)NC(=O)N1OCC[C@H]1c1ccccc1 [Compound 5, (3S)—N-tert-Butyl-3-phenyl-1,2-oxazolidine-2-carboxamide]
1000 to 10000	CN(C)C(=O)N1OCC[C@H]1c1ccccc1 [Compound 6, (3S)—N,N-dimethyl-3-phenyl-1,2-oxazolidine-2-carboxamide]
1000 to 10000	O=C(N1CCCC1)N1OCC[C@H]1c1ccccc1 [Compound 7, (3S)-3-phenyl-2-(pyrrolidine-1-carbonyl)-1,2-oxazolidine]
> 10000	O=C(CO)N1OCC[C@H]1c1ccccc1 [Compound 9, 2-hydroxy-1-[(3S)-3-phenyl-1,2-oxazolidin-2-yl]ethan-1-one]
> 10000	O=C(N1OCC[C@H]1c1ccccc1)C1(O)CC1 [Compound 10, 1-[(3S)-3-Phenyl-1,2-oxazolidine-2-carbonyl]cyclopropan-1-ol]
1000 to 10000	O=C(C1COC1)N1OCC[C@H]1c1ccccc1 [Compound 11, (3S)-2-(Oxetane-3-carbonyl)-3-phenyl-1,2-oxazolidine]
1000 to 10000	COCC(=O)N1OCC[C@H]1c1ccccc1 [Compound 13, 2-Methoxy-1-[(3S)-3-phenyl-1,2-oxazolidin-2-yl]ethan-1-one]
> 10000	C[C@@H](O)C(=O)N1OCC[C@H]1c1ccccc1 [Compound 14, (2R)-2-Hydroxy-1-[(3S)-3-phenyl-1,2-oxazolidin-2-yl]propan-1-one]
1000 to 10000	CC(C)(C)OC(=O)N1OCC[C@H]1c1ccccc1 [Compound 22, tert-Butyl (3S)-3-phenyl-1,2-oxazolidine-2-carboxylate]
1000 to 10000	CC(C)(C)OC(=O)N1OCCC1c1ccccc1 (centres unmarked) [Compound 83, tert-butyl 3-phenylisoxazolidine-2-carboxylate]
> 10000	CC(C)(C)C(=O)N1OCC[C@@H]1c1ccccc1 [Compound 84, (R)-2,2-dimethyl-1-(3-phenylisoxazolidin-2-yl)propan-1-one]
> 10000	Cn1c(C#N)ccc1C(=O)N1OCC[C@@H]1c1ccccc1 [Compound 85, (R)-1-methyl-5-(3-phenylisoxazolidine-2-carbonyl)-1H-pyrrole-2-carbonitrile]

Biological target: T1, receptor interacting protein kinase 1 (GST-hRIPK1 (8-327))
Assay: Fluorescent Polarization Binding (FP Binding) assay
Conditions: 10 nM GST-hRIPK1 (8-327), 5 nM fluorescent-labeled ligand, 30 min at RT
Procedure, shortened: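 Displacement of 5 nM fluorescent ligand from 10 nM GST-hRIPK1 (8-327), 30 min at room temperature in pH 7.5 HEPES buffer, 1% DMSO. Fluorescence polarization read (ex 531/em 595 nm); IC50 fitted from percent inhibition and averaged over at least two independent experiments.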

IC50	SMILES
< 1000 nM	CC(C)(C)C(=O)N1OCCC1c1ccc(F)cc1 (single isomer, unassigned) [Compound 73, 1-[3-(4-Fluorophenyl)-1,2-oxazolidin-2-yl]-2,2-dimethylpropan-1-one]
< 1000 nM	Cc1ncc([C@@H]2CCON2C(=O)C(C)(C)C)cc1F (single isomer, unassigned) [Compound 97]
< 1000 nM	CC(C)(C(=O)N1OCC[C@H]1c1ccc(C#N)s1)C(F)F [Compound 204, 5-[(3S)-2-(3,3-difluoro-2,2-dimethylpropanoyl)-1,2-oxazolidin-3-yl]thiophene-2-carbonitrile]
< 1000 nM	Cn1cc([C@@H]2CCON2C(=O)C(C)(C)C)cc1C#N [Compound 205, 4-[(3S)-2-(2,2-dimethylpropanoyl)-1,2-oxazolidin-3-yl]-1-methyl-1 h-pyrrole-2-carbonitrile]
< 1000 nM	Cc1ncc([C@@H]2CCON2C(=O)C(C)(C)C)cc1C#N [Compound 219]
< 1000 nM	Cc1ncc([C@@H]2CCON2C(=O)C(C)(C)C(F)F)cc1C#N [Compound 220, 5-[(3S)-2-(3,3-difluoro-2,2-dimethylpropanoyl)-1,2-oxazolidin-3-yl]-2-methylpyridine-3-carbonitrile]
< 1000 nM and 70 nM	CC(C)(C(=O)N1OCC[C@H]1c1ccc(C(F)F)nc1)C(F)F [Compound 221, 1-[(3S)-3-[6-(difluoromethyl)pyridin-3-yl]-1,2-oxazolidin-2-yl]-3,3-difluoro-2,2-dimethylpropan-1-one]
< 1000 nM	CC(C)(C)C(=O)N1OCC[C@H]1c1cc(Br)cc(C#N)c1 [Compound 222, 3-bromo-5-[(3S)-2-(2,2-dimethylpropanoyl)-1,2-oxazolidin-3-yl]benzonitrile]
< 1000 nM	CC(C)(C)C(=O)N1OCC[C@H]1c1ccc([N+](=O)[O-])nc1 [Compound 223, 2,2-dimethyl-1-[(3S)-3-(6-nitropyridin-3-yl)-1,2-oxazolidin-2-yl]propan-1-one]
1000 to 10000 nM	CC(C)S(=O)(=O)N1OCC[C@H]1c1cncc(C#N)c1 [Compound 225, 5-[(3S)-2-(propane-2-sulfonyl)-1,2-oxazolidin-3-yl]pyridine-3-carbonitrile]
< 1000 nM	CC(C)(C(=O)N1OCC[C@H]1c1cc(F)cc(C#N)c1)C(F)F [Compound 226, 3-[(3S)-2-(3,3-difluoro-2,2-dimethylpropanoyl)-1,2-oxazolidin-3-yl]-5-fluorobenzonitrile]
< 1000 nM	CC(C)(C(=O)N1OCC[C@H]1c1ccc(C(F)F)c(C#N)c1)C(F)F [Compound 227, 5-[(3S)-2-(3,3-difluoro-2,2-dimethylpropanoyl)-1,2-oxazolidin-3-yl]-2-(difluoromethyl)benzonitrile]
< 1000 nM	CC(C)(CC#N)C(=O)N1OCC[C@H]1c1ccc(C(F)F)c(C#N)c1 [Compound 228, 5-[(3S)-2-(3-cyano-2,2-dimethylpropanoyl)-1,2-oxazolidin-3-yl]-2-(difluoromethyl)benzonitrile]
< 1000 nM	N#Cc1ccc([C@@H]2CCON2C(=O)C2(C(F)F)CCC2)cc1 [Compound 229, 4-[(3S)-2-[1-(difluoromethyl)cyclo-butanecarbonyl]-1,2-oxazolidin-3-yl]benzonitrile]
< 1000 nM	N#Cc1ccc([C@@H]2CCON2C(=O)C23C4C5C6C4C2C6C53)cc1 (stereo partly drawn) [Compound 238, 4-[(3S)-2-(cubane-1-carbonyl)-1,2-oxazolidin-3-yl]benzonitrile]
< 1000 nM	CC(C)(C(=O)N1OCC[C@H]1c1cccc(C#N)c1)C(F)F [Compound 239, 3-[(3S)-2-(3,3-difluoro-2,2-dimethylpropanoyl)-1,2-oxazolidin-3-yl]benzonitrile]
5 nM	N#Cc1cncc([C@@H]2CCON2C(=O)C(C2CC2)(C2CC2)C2CC2)c1 [Compound 242, 5-[(3S)-2-(tricyclopropylacetyl)-1,2-oxazolidin-3-yl]pyridine-3-carbonitrile]
